# Test system: B. plicatilis rotifer
# Test: Rotifer feeding rate toxicity test (fluosphere ingestion measured by laser fluorescence capillary device)
# Type: in vivo, Brachionus plicatilis
# Procedure: Water quality monitoring using rotifers was performed using a capillary tube with an internal diameter of 70 μm, a narrow band, 635 nm, 3 mW diode laser with a beam diameter of 40 μm was used. Interference filters were selected to transmit 12% at 670 nm (20 nm FWM), and 10^−6 at all other wavelengths.
# 1. A live B. plicatilis rotifer culture was obtained from Aqua-Farms, Fla. These rotifers were chosen because they are easy to raise, and the influence of toxic samples on their feeding, reproduction, and death rates have been studied extensively. The average concentration of rotifers in a 100 ml vial was counted using five 20 μl samples examined under a 50× microscope. […]
# 2. Two samples of 8 ml each were used to make the feeding rate measurements, a reference sample and test sample. These two vials were filled with the 500 rotifers/ml reference solution.
# 3. A […] diazanon solution was prepared using the rotifer medium solution, so as to maintain water quality parameters such as pH, O2, alkalinity, salinity, and temperature as constant as possible. A 20 μl amount of the diazanon solution was added to test sample.
# 4. After a 5 minute incubation, 20 μl of a 40×10^6 beads/ml solution of crimson fluospheres was added to both the reference and test samples. The time was noted as t=0.
# 5. Using two identical syringes connected with a luer union to a 100 μm piece of nylon tubing terminated with a 20 μm plankton filter, a 50 μl sample was extracted from the reference and test samples. In both cases, the organisms were filtered out from the bead solution.
# 6. The reference and test samples were successively passed through the test chamber using the syringe pump at a flow rate of 15 μl/min. […]
# Each data file was retrieved, using TOXANA™, a time series data analysis software program. […] An assessment of the signal baseline mean and variance values (where no peak is detected) was made for each file. […]
# The number of peaks with an intensity above Td were calculated for each file, as well as the average peak intensity, the average peak width, and the average peak area.
structure (smiles),measurement,setting,value
CCOP(=S)(OCC)Oc1cc(C)nc(C(C)C)n1 [diazanon],feeding rate reduced by a factor (vs control sample),"exposure to 1 ppm of diazanon, 500 rotifers/ml, FIG. 7B",30
same,ingestion rate per organism,"test sample containing 1 ppm of diazanon, 500 rotifers/ml, 5 minute incubation, FIG. 7B",10^−3 beads/sec
same,feeding rate,"test sample containing 1 ppm of diazanon, 600 rotifers/ml, FIG. 7C",less than 0.05 beads/min
